Read-outs that look alike come from different tables or passages of the source. Marks after values point to notes of the source that are not given here.

One may read the chromatographic logP as lipophilicity estimated from chromatographic retention. A high value points to a more lipophilic compound.

Data set [1] relates to Phytophthora infestans. The class given is in vivo. The settings on record: tomato plants, preventive spray, 500 ppm of active ingredient, evaluated 5 days after inoculation.
The conditions of data set [2]: pH 2.7.
Experimental: (§4) Measurement of IogP values was performed according EEC directive 79/831 Annex V.A8 by HPLC (High Performance Liquid Chromatography) on reversed phase columns with the following methods:
(§5) Measurement of LC-MS was done at pH 2.7 with 0.1% formic acid in water and with acetonitrile (contains 0.1% formic acid) as eluent with a linear gradient from 10% acetonitrile to 95% acetonitrile.
(§6) Calibration was done with not branched alkan2-ones (with 3 to 16 carbon atoms) with known logP-values (measurement of logP values using retention times with linear interpolation between successive alkanones). lambda-maX-values were determined using UV-spectra from 200 nm to 400 nm and the peak values of the chromatographic signals.
The next data set concerns Septoria tritici. The data set is described as follows: Example G: in vivo preventive test on Septoria tritici (leaf spot on wheat). The note with it: wheat plants, preventive spray, 500 ppm of active ingredient, evaluated 24 days after inoculation. The protocol: Example G: In Vivo Preventive Test on Septoria tritici (Leaf Spot on Wheat)
(§1) The tested active ingredients are prepared by homogenization in a mixture of acetone/Dimethyl sulfoxide/Tween®, and then diluted with water to obtain the desired active material concentration.
(§2) The young plants of wheat are treated by spraying the active ingredient prepared as described above. Control plants are treated only with an aqueous solution of acetone/Dimethyl sulfoxide/Tween®.
After 24 hours, the plants are contaminated by spraying the leaves with an aqueous suspension of Septoria tritici spores. The contaminated wheat plants are incubated for 72 hours at 18° C. and at 100% relative humidity and then for 21 days at 20° C. and at 90% relative humidity.
The test is evaluated 24 days after the inoculation. 0% means an efficacy which corresponds to that of the control plants while an efficacy of 100% means that no disease is observed.

For a further data set, the system named is Pyrenophora teres. The data set is described as follows: Example E: in vivo preventive test on Pyrenophora teres (net blotch on barley). The note with it: barley plants, preventive spray, 500 ppm of active ingredient, evaluated 14 days after inoculation. How it is done: Example E: In Vivo Preventive Test on Pyrenophora teres (Net Blotch on Barley)
as §1
The young plants of barley are treated by spraying the active ingredient prepared as described above. Control plants are treated only with an aqueous solution of acetone/Dimethyl sulfoxide/Tween®.
After 24 hours, the plants are contaminated by spraying the leaves with an aqueous suspension of Pyrenophora teres spores. The contaminated barley plants are incubated for 48 hours at 20° C. and at 100% relative humidity and then for 12 days at 20° C. and at 70-80% relative humidity.
The test is evaluated 14 days after the inoculation. 0% means an efficacy which corresponds to that of the control plants while an efficacy of 100% means that no disease is observed.

The test system of a further data set is Plasmopara viticola. The data set is described as follows: Example J: Plasmopara test (grapevines)/preventive. The note with it: grapevine plants, preventive spray, 10 ppm of active ingredient, evaluated 6 days after inoculation. In kind it is in vivo. How it is done:
Example J: Plasmopara Test (Grapevines)/Preventive
To produce a suitable preparation of active compound, 1 part by weight of active compound is mixed with the stated amounts of solvent and emulsifier, and the concentrate is diluted with water to the desired concentration.
To test for preventive activity, young plants are sprayed with the preparation of active compound at the stated rate of application. After the spray coating has dried on, the plants are inoculated with an aqueous spore suspension of Plasmopara viticola and then remain for 1 day in an incubation cabinet at approximately 20° C. and a relative atmospheric humidity of 100%. The plant is subsequently placed for 4 days in a greenhouse at approximately 21° C. and a relative atmospheric humidity of approximately 90%. The plants are then misted and placed for 1 day in an incubation cabinet.
The test is evaluated 6 days after the inoculation. 0% means an efficacy which corresponds to that of the untreated control, while an efficacy of 100% means that no disease is observed.

The conditions of data set [3]: for LogP: Table 1, formula (I), method [a]: HPLC/LC-MS at pH 2.7, 0.1% formic acid in water / acetonitrile gradient.
Experimental: as §4, §5, §6
Data set [4] deals with Phytophthora infestans. In kind it is in vivo. The settings on record: tomato plants, preventive spray (DMF/alkylaryl polyglycol ether), 500 ppm of active ingredient, evaluated 7 days after inoculation.
The test system of another data set is Alternaria brassicae. In words: Example A: in vivo preventive test on Alternaria brassicae (leaf spot on radish). The settings on record: radish plants, preventive spray, 500 ppm of active ingredient, evaluated 6 days after inoculation. How it is done: Example A: In Vivo Preventive Test on Alternaria brassicae (Leaf Spot on Radish)
as §1
The young plants of radish are treated by spraying the active ingredient prepared as described above. Control plants are treated only with an aqueous solution of acetone/Dimethyl sulfoxide/Tween®.
After 24 hours, the plants are contaminated by spraying the leaves with an aqueous suspension of Alternaria brassicae spores. The contaminated radish plants are incubated for 6 days at 20° C. and at 100% relative humidity.
The test is evaluated 6 days after the inoculation. 0% means an efficacy which corresponds to that of the control plants while an efficacy of 100% means that no disease is observed.

For a further data set, the system named is Pyricularia oryzae. In kind it is in vivo. The settings on record: rice plants, preventive spray, 500 ppm of active ingredient, evaluated 6 days after inoculation.
The subject of the next data set is Botrytis cinerea. The data set is described as follows: Example B: in vivo preventive test on Botrytis cinerea (grey mould). The note with it: gherkin plants, preventive spray, 500 ppm of active ingredient, evaluated 4 to 5 days after inoculation. How it is done:
Example B: In Vivo Preventive Test on Botrytis cinerea (Grey Mould)
as §1
The young plants of gherkin are treated by spraying the active ingredient prepared as described above. Control plants are treated only with an aqueous solution of acetone/Dimethyl sulfoxide/Tween®.
After 24 hours, the plants are contaminated by spraying the leaves with an aqueous suspension of Botrytis cinerea spores. The contaminated gherkin plants are incubated for 4 to 5 days at 17° C. and at 90% relative humidity.
The test is evaluated 4 to 5 days after the inoculation. 0% means an efficacy which corresponds to that of the control plants while an efficacy of 100% means that no disease is observed.

For a further data set, the system named is Uromyces appendiculatus. The data set is described as follows: Example H: in vivo preventive test on Uromyces appendiculatus (bean rust). The note with it: bean plants, preventive spray, 500 ppm of active ingredient, evaluated 11 days after inoculation. The protocol:
Example H: In Vivo Preventive Test on Uromyces appendiculatus (Bean Rust)
as §1
The young plants of bean are treated by spraying the active ingredient prepared as described above. Control plants are treated only with an aqueous solution of acetone/Dimethyl sulfoxide/Tween®.
After 24 hours, the plants are contaminated by spraying the leaves with an aqueous suspension of Uromyces appendiculatus spores. The contaminated bean plants are incubated for 24 hours at 20° C. and at 100% relative humidity and then for 10 days at 20° C. and at 70-80% relative humidity.
(§3) The test is evaluated 11 days after the inoculation. 0% means an efficacy which corresponds to that of the control plants while an efficacy of 100% means that no disease is observed.

The test system of a further data set is Puccinia recondita. The data set is described as follows: Example D: in vivo preventive test on Puccinia recondita (brown rust on wheat). The note with it: wheat plants, preventive spray, 500 ppm of active ingredient, evaluated 11 days after inoculation. The protocol:
Example D: In Vivo Preventive Test on Puccinia recondita (Brown Rust on Wheat)
as §1, §2
After 24 hours, the plants are contaminated by spraying the leaves with an aqueous suspension of Puccinia recondita spores. The contaminated wheat plants are incubated for 24 hours at 20° C. and at 100% relative humidity and then for 10 days at 20° C. and at 70-80% relative humidity.
as §3

For the compound `Cn1c(/C(=N\OCc2nc(C(=O)NC(C)(C)C)cs2)c2ccccc2)noc1=O` [Example 5], the “% efficacy” value with Phytophthora infestans [1] amounted to 100%; in the data set with Septoria tritici, 86%. Moreover, in data set [2], the LogP was 3.22^[a].

Take `Cn1c(/C(=N\OCc2nc(NC(=O)OC(C)(C)C)cs2)c2ccccc2)noc1=O` [Example 6]: the figures for the “% efficacy” value with Phytophthora infestans [1] and in the data set on Pyrenophora teres were 100% and 80%, respectively. The LogP in [2] is 3.64^[a]. The same compound yielded an Eff. % in the data set on Plasmopara viticola of 99%.

In data set [3] (pH 2.7), `CCCCCOC(=O)Nc1ccn(CO/N=C(/c2ccccc2)c2nc(=O)on2C)n1` [Example 7, pentyl {1-[({[(Z)-(2-methyl-5-oxo-2,5-dihydro-1,2,4-oxadiazol-3-yl)(phenyl)methylene]amino}oxy)methyl]-1H-pyrazol-3-yl}carbamate] showed a chromatographic logP of 3.06. In addition, the Eff. % is recorded as 100% with Phytophthora infestans [4] and 85% in the data set with Plasmopara viticola.

Turning to `Cn1c(/C(=N\OCc2nc(C#CC3CC3)cs2)c2ccccc2)noc1=O` [Example 10], the results for the “% efficacy” value in the data set on Phytophthora infestans [1] and in the data set on Alternaria brassicae were 100% and 97%, respectively. The LogP in [2] was 3.56^[a].

For `Cn1c(/C(=N\OCc2nc(C#Cc3ccc(F)cc3)cs2)c2ccccc2)noc1=O` [Example 13], the results for the “% efficacy” value with Phytophthora infestans [1] and with Pyricularia oryzae were 95% and 79%, respectively. In addition, the LogP in data set [2] is 4.09^[a].

As for `Cn1c(/C(=N\OCc2nc(C(=O)NCCc3ccccc3)cs2)c2ccccc2)noc1=O` [Example 15], the figures for the “% efficacy” value with Phytophthora infestans [1] and in the data set with Botrytis cinerea were 100% and 73%, respectively. In addition, the LogP in [2] was 3.27^[a]. Moreover, the Eff. % with Plasmopara viticola came out at 75%.

As to `Cn1c(/C(=N\OCc2nc(C(=O)Nc3ccccc3)cs2)c2ccccc2)noc1=O` [Example 16], the entries for the “% efficacy” value in the data set on Phytophthora infestans [1], in the data set with Septoria tritici and with Pyrenophora teres were 80%, 79% and 71%, respectively. Also, the LogP in data set [2] was 3.29^[a].

For `Cc1ccc(C(=O)Nc2csc(CO/N=C(/c3ccccc3)c3noc(=O)n3C)n2)cc1` [Example 17], in the data set on Phytophthora infestans [1], the “% efficacy” value amounted to 100%. Also, the LogP in data set [2] was 3.34^[a]. Besides, in the data set on Plasmopara viticola, the Eff. % stood at 84%.

For `CCCCCCNC(=O)c1csc(CO/N=C(/c2ccccc2)c2noc(=O)n2C)n1` [Example 18], the “% efficacy” value in the data set on Phytophthora infestans [1] was determined as 99%; with Uromyces appendiculatus, 72%; in the data set with Pyrenophora teres it was 71%. The LogP in data set [2] is 3.76^[a].

Turning to `Cn1c(/C(=N\OCc2nc(NC(=O)Cc3ccccc3)cs2)c2ccccc2)noc1=O` [Example 19], in the data set on Phytophthora infestans [1], the “% efficacy” value is reported as 98%. Besides, the LogP in data set [3] is 3.21^[a].

With `Cn1c(/C(=N\OCc2nc(C#CCCCc3ccccc3)cs2)c2ccccc2)noc1=O` [Example 20], the “% efficacy” value worked out at 90% with Phytophthora infestans [1], 81% with Uromyces appendiculatus and 78% with Puccinia recondita. Moreover, the LogP in data set [2] was 4.68^[a].

Take `CCCC#Cc1csc(CO/N=C(/c2ccccc2)c2noc(=O)n2C)n1` [Example 22]: in the data set on Phytophthora infestans [1], the “% efficacy” value is recorded as 100%. The LogP in [2] was 3.87^[a]. The compound also showed an Eff. % in the data set with Plasmopara viticola of 85%.

For the compound `CC(C)C#Cc1csc(CO/N=C(/c2ccccc2)c2noc(=O)n2C)n1` [Example 23], in the data set on Phytophthora infestans [1], the “% efficacy” value turned out to be 99%. Besides, the LogP in [3] is 3.86^[a].

As for `Cn1c(/C(=N\OCc2nc(NC(=O)C3CCc4ccccc4O3)cs2)c2ccccc2)noc1=O` (stereo not drawn) [Example 27], in the data set with Phytophthora infestans [1], the “% efficacy” value came to 92%. For the same compound, the LogP in data set [2] is 3.77^[a]. The same compound yielded an Eff. % in the data set on Plasmopara viticola of 99%.

On to `Cn1c(/C(=N\OCc2nc(/C=C/C3CCCCC3)cs2)c2ccccc2)noc1=O` [Example 29], for which the results for the “% efficacy” value with Phytophthora infestans [1] and in the data set with Septoria tritici were 83% and 79%, respectively. For the same compound, the LogP in data set [2] was 5.39^[a].

With `Cn1c(/C(=N\OCc2nc(/C=C/C3CC3)cs2)c2ccccc2)noc1=O` [Example 34], the entries for the “% efficacy” value in the data set on Phytophthora infestans [1] and in the data set with Septoria tritici were 100% and 86%, respectively. In addition, the LogP in data set [2] is 3.90^[a].

As to `CC(OCC(=O)Nc1csc(CO/N=C(/c2ccccc2)c2noc(=O)n2C)n1)c1ccccc1` (stereo not drawn) [Example 38], in the data set on Phytophthora infestans [1], the “% efficacy” value was determined as 100%. Moreover, the LogP in [2] is 4.32^[a]. The compound further had an Eff. % in the data set on Plasmopara viticola of 96%.

Turning to `CC(Oc1ccccc1)C(=O)Nc1csc(CO/N=C(/c2ccccc2)c2noc(=O)n2C)n1` (stereo not drawn) [Example 40], the “% efficacy” value in the data set with Phytophthora infestans [1] came out at 100%. Besides, the LogP in [2] was 3.55^[a]. The compound also showed an Eff. % in the data set on Plasmopara viticola of 99%.

The values are drawn from patent US9743665B2, “Fungicidal 3-{phenyl[heterocyclylmethoxy)imino]methyl}-oxadiazolone derivatives” (BAYER CROPSCIENCE AKTIENGESELLSCHAFT, priority 2013, dated 2017).
